# Laboratory results as given in US20070225213A1, “Nucleic acid carriers for delivery of therapeutic agents” (priority 2006, published 2007).
# Columns and labels:
# [1] = In vivo MTN recovery in mouse urine after single i.v. dose (Example 17)
# Procedure: NAC-MTN or MTN alone was administered intravenously to mice via the tail vein. […] After 2 hours, NAC-MTN or MTN was detected in urine, quantified by absorbance at 665 nm, and reported as % of total.
# Procedure. […] White mice, n=2 were tail vein injected with 0.25 ml of either NAC-MTN or MTN alone. […] MTN was quantified in mouse urine by absorbance of 0.2 ml sample at 665 nm, and converted to mg/ml using an MTN standard curve.
# To determine if NAC-MTN was excreted in urine as a complex, MTN fluorescence due to unbound NAC was assayed by an addition method. DNA was added to urine from both groups and subsequent change in fluorescence was measured.
# [2] = tested on: MCF7; test: Cell uptake by MTN fluorescence EX620/EM680 (Examples 10 and 13, EX051605); type: cell-based, human; conditions: 10% w/w loading in DNA
# Procedure: Materials: HSGDNA, MTN, ODNAS1116 (phosphorothioated, single stranded DNA, and Beta-cyclodextrin polymer (BCD-SBE, KKBIOMED Inc.) were previously prepared in water at 10 mg/ml, 1 mg/ml, 0.95 mg/ml, and 10 mg/ml respectively.
# Procedure: For NAC-MTN, combined 37 ul HSGDNA (herring genomic DNA, Promega Inc.), 1426 ul HBSS( Hank's buffered saline, Sigma-Aldrich), with 37 ul of MTN, followed by 1500 ul 2× DMEM media to give 3 ml final and 24 uM (24 micro-molar) MTN and 10% w/w drug loading of MTN. For NAC-MTN (AR1505) combined 62 ul of HSDNA (deg. herring sperm DNA, Sigma) with 2377 ul HBSS, 61.7 ul MTN, 2500 ul 2× media to give 5 ml final and 24 uM MTN and 10% w/w drug loading of MTN to HSDNA. […]
# Plate#1 Media was aspirated and cells treated with 100 ul of either NAC-MTN, CD-MTN, or MTN at 24 uM MTN final or 12.3 ug/ml MTN in all samples. Samples containing MTN were incubated 4 hours, removed, and fluorescence taken at EX620/EM680. […]
# Samples were incubated 4 hours, removed, and MTN fluorescence taken at EX620/EM680. […] Average MTN fluorescence was averaged from 6 wells. For each cell type, MTN fluorescence was highest in MTN treated cells, followed by CD-MTN, and lowest in NAC-MTN. […]
# PLATE#2: Dispensed 50 ul from source plate into plate #2 to give 150 ul final vol 4.1 ug/ml, 8 uMfinal per well, pre-read fluorescence w samples (bkgd) incubated 5 hr, removed, replaced w/ media, read fluor. […]
# [3] = tested on: MCF7 cells; test: Drug loading vs toxicity at fixed [drug], MTT viability assay (Example 4); type: cell-based, human; conditions: Drug only, without carrier; 0.058 mM MTN; 72 hours
# Procedure: FIG. 1. […] NAC-MTN or NAC-DOX were prepared at different weight:weight % of drug:nucleic acid and incubated in cells. For each sample and corresponding % loading, the total drug was held constant at 0.058 mM MTN or 0.1 mM DOX. After incubation in cells, cell viability was assayed via mitochondrial dehydrogenase activity against 3-[4,5-dimethylthiazol-2-yl]-2,5-diphenyl tetrazolium bromide (MTT) and reported as % toxicity relative to untreated cells.
# Mitoxantrone (MTN, Sigma Aldrich) and Doxorubicin HCl (DOX) were diluted in HBSS to 1 mg/ml final. DNA, from degraded herring sperm DNA <40 bp (HSDNA, Sigma Aldrich), was prepared in water at 10 mg/ml. The drug was diluted in water or HBSS first, followed by addition of the DNA, in order to prevent precipitation. Precipitation of drug was especially a concern at 40% loading of MTN, which is the loading limit for HSDNA (degraded) and so the DNA is added slowly to the diluted MTN (the reverse addition leads to precipitation). All NAC-MTN formulation stocks were prepared at 0.15 mg/ml final MTN, and different concentration of DNA in order to give 15, 25, and 35.7% final drug loading w/w % of MTN/DNA in 0.5 ml final volume. All NAC-DOX formulations were prepared at 0.3 mg/ml final DOX, and either 5, 10, or 15% loaded drug weight/weight % of DOX/DNA in 0.5 ml final volume. […]
# [4] = Elapsed Time 2.5 hr, 0.281 mg MTN i.v.
smiles,measurement,setting,value
"O=C1c2c(O)ccc(O)c2C(=O)c2c(NCCNCCO)ccc(NCCNCCO)c21 [MTN, mitoxantrone]",FLUOR. (mouse urine),[1]; [4],4086
same,MTN % recov. in urine (% of total dose),[1]; [4],1.9%
same,FLUOR. (mouse urine),[1]; Elapsed Time 5 hr,4405
same,MTN % recov. in urine (% of total dose),[1]; Elapsed Time 5 hr,1.6%
same,FLUOR. (mouse urine),[1]; Elapsed Time 8 hr,4455
same,MTN % recov. in urine (% of total dose),[1]; Elapsed Time 8 hr,3.8%
same,% reduction in fluorescence relative to MTN alone (MTN = 0%),"[2]; Plate#1, 24 uM MTN, 4 hours",0%
same,% reduction in fluorescence relative to MTN alone (MTN = 0%),"[2]; Plate#2, 8 uM MTN",0%
same,% Tox,[3],79%
